# Experimental data taken from patent US10722516B2, “Use of landiolol hydrochloride in the long-term treatment of tachyarrhythmias” (AOP Orphan Pharmaceuticals AG, priority 2013, dated 2020).
# Counter-ions that a name gives are not always drawn.
# Tested on: healthy volunteers
# Experiment: 24 h long-term infusion study, AOP LDLL600 against esmolol: heart rate
# Assay type: in vivo, human
# Description: A single centre prospective, randomized, double blind, crossover, pharmacokinetic, safety and tolerability study to compare long-term infusion administration of AOP LDLL600 against esmolol in healthy volunteers was performed.
# Landiolol hydrochloride lyophilized (LDLL600) comprises 600 mg landiolol hydrochloride, 600 mg mannitol, pH 6.5. The primary packing of LDLL600 is 50 ml vial, the reconstitution volume is 50 ml and the final product concentration is 12 mg/mL landiolol HCl.
# 12 subjects were administered AOP LDLL600 or Esmolol (Brevibloc, 2500 mg/250 ml) in 1:1 ratio in double-blind, randomized, cross-over setting. PK, systemic cardiovascular and local tolerability and safety of the 24 h-long term infusions of three dose levels of both IMPs during each treatment period were assessed.
# Landiolol was infused over 24 h in a dose of 10 μg/KG/min (2 hrs), followed by 20 μg/KG/min (2 hrs), followed by 40 μg/KG/min for 20 hrs.
# Dosing algorithm was body weight divided by 20, 10 and 5 in ml/h giving 10, 20 and 40 μg/KG/min at a concentration of 12 mg/ml. No severe adverse drug reactions, mild local reactions, 1 severe local reaction (Esmolol High Dose).
# Landiolol was infused over 24 h in a dose of 10, 20 and 40 μg/KG/min, i.e. 10 μg/KG/min landiolol were administered for 2 hrs, followed by 2 hrs administration of 20 μg/KG/min and further followed by 20 hrs administration of 40 μg/KG/min.
# Post-infusion follow up measurements were performed immediately after 20 hrs administration study, i.e. 2, 4 min etc. after stop of landiolol administration.
# [1] = FU Predose (end of 20 h HD, infusion stop)
# [2] = FU post-infusion, 20 h 2 min (2 min after infusion stop)
# [3] = FU post-infusion, 20 h 4 min (4 min after infusion stop)
# [4] = FU post-infusion, 20 h 6 min (6 min after infusion stop)
# [5] = FU post-infusion, 20 h 8 min (8 min after infusion stop)
# [6] = FU post-infusion, 20 h 12 min (12 min after infusion stop)
# [7] = FU post-infusion, 20 h 16 min (16 min after infusion stop)
# [8] = FU post-infusion, 20 h 20 min (20 min after infusion stop)
# [9] = FU post-infusion, 20 h 30 min (30 min after infusion stop)
# [10] = FU post-infusion, 21 h (1 h after infusion stop)
# [11] = FU post-infusion, 22 h (2 h after infusion stop)
# [12] = FU post-infusion, 24 h (4 h after infusion stop)
# [13] = FU post-infusion, 26 h (6 h after infusion stop)
# [14] = HD infusion (landiolol 40, esmolol 200 μg/kg/min, after LD and MD), 2 min
# [15] = HD infusion (landiolol 40, esmolol 200 μg/kg/min, after LD and MD), 3 min
# [16] = HD infusion (landiolol 40, esmolol 200 μg/kg/min, after LD and MD), 4 min
# [17] = HD infusion (landiolol 40, esmolol 200 μg/kg/min, after LD and MD), 6 min
# [18] = HD infusion (landiolol 40, esmolol 200 μg/kg/min, after LD and MD), 8 min
# [19] = HD infusion (landiolol 40, esmolol 200 μg/kg/min, after LD and MD), 12 min
# [20] = HD infusion (landiolol 40, esmolol 200 μg/kg/min, after LD and MD), 16 min
# [21] = HD infusion (landiolol 40, esmolol 200 μg/kg/min, after LD and MD), 20 min
# [22] = HD infusion (landiolol 40, esmolol 200 μg/kg/min, after LD and MD), 30 min
# [23] = HD infusion (landiolol 40, esmolol 200 μg/kg/min, after LD and MD), 60 min
# [24] = HD infusion (landiolol 40, esmolol 200 μg/kg/min, after LD and MD), 90 min
# [25] = HD infusion (landiolol 40, esmolol 200 μg/kg/min, after LD and MD), 2 h
# [26] = HD infusion (landiolol 40, esmolol 200 μg/kg/min, after LD and MD), 4 h
# [27] = HD infusion (landiolol 40, esmolol 200 μg/kg/min, after LD and MD), 8 h
# [28] = HD infusion (landiolol 40, esmolol 200 μg/kg/min, after LD and MD), 12 h
# [29] = HD infusion (landiolol 40, esmolol 200 μg/kg/min, after LD and MD), 16 h
# [30] = HD infusion (landiolol 40, esmolol 200 μg/kg/min, after LD and MD), 20 h (end)
# [31] = LD infusion (landiolol 10, esmolol 50 μg/kg/min), 2 min
# [32] = LD infusion (landiolol 10, esmolol 50 μg/kg/min), 3 min
smiles,measurement,setting,value
"CC1(C)OC[C@@H](COC(=O)CCc2ccc(OC[C@@H](O)CNCCNC(=O)N3CCOCC3)cc2)O1 [Landiolol, (−)-[(S)-2,2-dimethyl-1,3-dioxolan-4-yl]methyl 3-[4-[(S)-2-hydroxy-3-(2-morpholinocarbonylamino)ethylamino]propoxy]phenylpropionate monohydrochloride]","change of heart rate from predose, Mean (SD)",[1],−5.7 (11.51) beats per minute
same,"heart rate, Mean (SD)",[1],61.7 (5.87) beats per minute
same,"change of heart rate from predose, Mean (SD)",[2],−6.8 (11.98) beats per minute
same,"heart rate, Mean (SD)",[2],60.6 (5.50) beats per minute
same,"change of heart rate from predose, Mean (SD)",[3],−6.5 (9.88) beats per minute
same,"heart rate, Mean (SD)",[3],60.8 (4.04) beats per minute
same,"change of heart rate from predose, Mean (SD)",[4],−5.9 (9.79) beats per minute
same,"heart rate, Mean (SD)",[4],61.4 (5.43) beats per minute
same,"change of heart rate from predose, Mean (SD)",[5],−5.7 (10.63) beats per minute
same,"heart rate, Mean (SD)",[5],61.7 (5.33) beats per minute
same,"change of heart rate from predose, Mean (SD)",[6],−3.8 (10.00) beats per minute
same,"heart rate, Mean (SD)",[6],63.5 (6.11) beats per minute
same,"change of heart rate from predose, Mean (SD)",[7],−0.3 (14.69) beats per minute
same,"heart rate, Mean (SD)",[7],67.0 (8.92) beats per minute
same,"change of heart rate from predose, Mean (SD)",[8],−0.3 (11.89) beats per minute
same,"heart rate, Mean (SD)",[8],67.0 (8.29) beats per minute
same,"change of heart rate from predose, Mean (SD)",[9],2.7 (9.47) beats per minute
same,"heart rate, Mean (SD)",[9],70.0 (5.70) beats per minute
same,"change of heart rate from predose, Mean (SD)",[10],1.8 (12.70) beats per minute
same,"heart rate, Mean (SD)",[10],69.2 (9.64) beats per minute
same,"change of heart rate from predose, Mean (SD)",[11],−0.5 (9.97) beats per minute
same,"heart rate, Mean (SD)",[11],66.8 (8.43) beats per minute
same,"change of heart rate from predose, Mean (SD)",[12],4.2 (10.34) beats per minute
same,"heart rate, Mean (SD)",[12],71.5 (4.96) beats per minute
same,"change of heart rate from predose, Mean (SD)",[13],5.3 (9.97) beats per minute
same,"heart rate, Mean (SD)",[13],72.6 (5.26) beats per minute
same,"change of heart rate from predose, Mean (SD)",HD Predose (end of 2 h MD),−11.3 (9.41) beats per minute
same,"heart rate, Mean (SD)",HD Predose (end of 2 h MD),56.1 (7.38) beats per minute
same,"change of heart rate from predose, Mean (SD)",[14],−9.6 (8.69) beats per minute
same,"heart rate, Mean (SD)",[14],57.8 (5.43) beats per minute
same,"change of heart rate from predose, Mean (SD)",[15],−9.9 (9.92) beats per minute
same,"heart rate, Mean (SD)",[15],57.4 (6.40) beats per minute
same,"change of heart rate from predose, Mean (SD)",[16],−12.6 (9.52) beats per minute
same,"heart rate, Mean (SD)",[16],54.8 (5.45) beats per minute
same,"change of heart rate from predose, Mean (SD)",[17],−9.7 (11.01) beats per minute
same,"heart rate, Mean (SD)",[17],57.7 (7.38) beats per minute
same,"change of heart rate from predose, Mean (SD)",[18],−10.7 (10.76) beats per minute
same,"heart rate, Mean (SD)",[18],56.7 (6.62) beats per minute
same,"change of heart rate from predose, Mean (SD)",[19],−9.4 (12.21) beats per minute
same,"heart rate, Mean (SD)",[19],57.9 (8.13) beats per minute
same,"change of heart rate from predose, Mean (SD)",[20],−11.3 (10.71) beats per minute
same,"heart rate, Mean (SD)",[20],56.0 (6.80) beats per minute
same,"change of heart rate from predose, Mean (SD)",[21],−11.4 (9.74) beats per minute
same,"heart rate, Mean (SD)",[21],55.9 (6.35) beats per minute
same,"change of heart rate from predose, Mean (SD)",[22],−10.5 (10.30) beats per minute
same,"heart rate, Mean (SD)",[22],56.8 (7.23) beats per minute
same,"change of heart rate from predose, Mean (SD)",[23],−5.4 (13.14) beats per minute
same,"heart rate, Mean (SD)",[23],61.9 (8.93) beats per minute
same,"change of heart rate from predose, Mean (SD)",[24],−4.8 (11.24) beats per minute
same,"heart rate, Mean (SD)",[24],62.5 (5.95) beats per minute
same,"change of heart rate from predose, Mean (SD)",[25],−3.0 (9.59) beats per minute
same,"heart rate, Mean (SD)",[25],64.3 (5.25) beats per minute
same,"change of heart rate from predose, Mean (SD)",[26],−6.9 (11.24) beats per minute
same,"heart rate, Mean (SD)",[26],60.4 (5.25) beats per minute
same,"change of heart rate from predose, Mean (SD)",[27],−9.8 (10.39) beats per minute
same,"heart rate, Mean (SD)",[27],57.5 (5.96) beats per minute
same,"change of heart rate from predose, Mean (SD)",[28],−10.8 (10.17) beats per minute
same,"heart rate, Mean (SD)",[28],56.5 (6.08) beats per minute
same,"change of heart rate from predose, Mean (SD)",[29],−13.8 (10.01) beats per minute
same,"heart rate, Mean (SD)",[29],53.6 (4.89) beats per minute
same,"change of heart rate from predose, Mean (SD)",[30],−5.7 (11.51) beats per minute
same,"heart rate, Mean (SD)",[30],61.7 (5.87) beats per minute
same,"change of heart rate from predose, Mean (SD)",[31],−1.8 (7.77) beats per minute
same,"heart rate, Mean (SD)",[31],65.6 (5.09) beats per minute
same,"change of heart rate from predose, Mean (SD)",[32],−2.5 (7.48) beats per minute
same,"heart rate, Mean (SD)",[32],64.8 (6.82) beats per minute
same,"change of heart rate from predose, Mean (SD)","LD infusion (landiolol 10, esmolol 50 μg/kg/min), 4 min",−2.8 (6.38) beats per minute
